The target in one series is ROCK2 (Homo sapiens (Human), UniProt O75116). As to the kind of experiment: ROCK2 kinase inhibition assay (peptide phosphorylation, LABCHIP 3000). The note with it: 7 μM ATP, 2.5 nM ROCK2, 3 hours at 25° C. The format is biochemical.
In another series the test system is MV411 cell line. As to the kind of experiment: Cell viability assay ([…]-GLO), MV411. The format is cell-based. The note with it: for IC50: Homo sapiens, MV4-11, MV411 (ITD-FLT3+), 72 hours treatment; for FLT3-ITD+ Selectivity (K562/MV411): ratio K562/MV411.
The next series deals with ROCK1 (Homo sapiens (Human), UniProt Q13464). Nature of the series: ROCK1 kinase inhibition assay (peptide phosphorylation, LABCHIP 3000). The format is biochemical. The note with it: 5 μM ATP, 3 nM ROCK1, 3 hours at 25° C.
ROCK1, sequence (Q13464 whole entry, species assumed): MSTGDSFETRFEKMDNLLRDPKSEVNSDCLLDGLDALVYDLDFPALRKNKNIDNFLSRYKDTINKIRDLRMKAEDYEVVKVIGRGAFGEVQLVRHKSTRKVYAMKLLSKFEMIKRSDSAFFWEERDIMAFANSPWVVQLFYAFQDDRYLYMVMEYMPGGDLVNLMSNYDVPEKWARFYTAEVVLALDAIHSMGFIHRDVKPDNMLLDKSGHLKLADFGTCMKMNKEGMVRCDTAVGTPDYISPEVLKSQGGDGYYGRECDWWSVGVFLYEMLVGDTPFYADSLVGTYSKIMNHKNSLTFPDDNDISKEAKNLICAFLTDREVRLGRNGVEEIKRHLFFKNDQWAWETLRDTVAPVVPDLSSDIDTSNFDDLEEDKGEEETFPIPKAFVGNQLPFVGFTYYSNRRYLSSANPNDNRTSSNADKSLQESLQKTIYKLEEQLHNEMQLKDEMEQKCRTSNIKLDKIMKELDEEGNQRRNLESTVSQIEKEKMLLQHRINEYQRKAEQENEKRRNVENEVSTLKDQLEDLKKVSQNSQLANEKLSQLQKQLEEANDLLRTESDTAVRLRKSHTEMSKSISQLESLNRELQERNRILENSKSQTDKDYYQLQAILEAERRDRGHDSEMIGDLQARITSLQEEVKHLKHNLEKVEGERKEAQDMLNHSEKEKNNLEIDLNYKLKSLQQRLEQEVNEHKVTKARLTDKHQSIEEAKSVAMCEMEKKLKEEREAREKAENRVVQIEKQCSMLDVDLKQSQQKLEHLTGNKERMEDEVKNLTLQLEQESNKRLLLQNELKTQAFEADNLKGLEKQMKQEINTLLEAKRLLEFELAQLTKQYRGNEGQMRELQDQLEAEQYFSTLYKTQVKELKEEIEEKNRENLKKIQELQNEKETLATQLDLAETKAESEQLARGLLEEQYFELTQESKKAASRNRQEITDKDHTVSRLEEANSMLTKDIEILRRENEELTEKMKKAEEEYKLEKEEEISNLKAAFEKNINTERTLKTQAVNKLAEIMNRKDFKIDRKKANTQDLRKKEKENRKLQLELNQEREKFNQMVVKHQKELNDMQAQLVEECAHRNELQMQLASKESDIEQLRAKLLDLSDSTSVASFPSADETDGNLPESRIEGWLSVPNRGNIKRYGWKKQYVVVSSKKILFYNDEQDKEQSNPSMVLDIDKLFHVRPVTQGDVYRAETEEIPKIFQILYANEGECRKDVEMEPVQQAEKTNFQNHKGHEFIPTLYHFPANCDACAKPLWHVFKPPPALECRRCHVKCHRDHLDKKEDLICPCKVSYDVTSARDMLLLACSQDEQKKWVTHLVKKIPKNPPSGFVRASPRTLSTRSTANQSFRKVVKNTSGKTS
In another series the test system is K562 cell line. Nature of the series: Cell viability assay ([…]-GLO), K562. The format is cell-based. The note with it: Homo sapiens; K562 (does not express ITD-FLT3), 72 hours treatment. The method, boiled down:
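Cells seeded 2.5×10^3-5×10^3/well, grown 24 h, then exposed to compounds for 72 h. Viability read as ATP luminescence (CellTiter-Glo-type) after 37° C incubation; % growth = test/vehicle ×100. IC50 from sigmoidal dose-response fit.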

The nature of series [1]: Pharmacokinetic activity in mice. The format is in vivo. The note with it: for AUC(0-t): read-out: AUC0-8. The protocol: Compounds were individually and accurately weighed out to produce a stock solution in Dimethyl-sulfoxide (DMSO) at a concentration of 2 mg/mL and stored at −20° C. From the stock solution, a working stock was prepared by diluting it in Methanol-Water 50:50 (v/v) at 20 μg/mL for calibration curve preparation and stored at 4° C. Standards used for quantitation and quality control samples (QCs) were prepared on the same day of sample processing using blank plasma obtained from non-treated mice. For each analyte, standards were prepared through serial dilutions of the working stock at concentrations of 0.1, 0.5, 1.0, 10, 50, 100, 500, and 1000 ng/mL; QCs were prepared at intermediate concentrations of 0.75, 7.5, 75, and 750 ng/mL. Plasma samples were stored at −80° C. until ready for analysis and then placed on ice for thawing. An aliquot of […] samples, standards, or QCs, were transferred into a 96-well extraction plate according to a pre-defined layout. An appropriate volume of Methanol-Formic Acid 99.9-0.1 containing internal standard (Verapamil at 25 ng/mL) was added to each well and the samples were extracted under vacuum. Eluent was then transferred into a LCMS plate for analysis using a suitable column for separation and MRM detection. Concentration of analytes was calculated based on the calibration curve and analyzed for pharmacokinetic parameters by using Non-compartmental analysis (NCA). Parameters such as Cmax, Tmax, half-life, AUC(0-last), AUC(0-∞), volume of distribution (Vss), and clearance (Cl/F) were reported.

Read-outs that look alike come from different tables or passages of the source.

ROCK2, sequence (O75116 whole entry, species assumed): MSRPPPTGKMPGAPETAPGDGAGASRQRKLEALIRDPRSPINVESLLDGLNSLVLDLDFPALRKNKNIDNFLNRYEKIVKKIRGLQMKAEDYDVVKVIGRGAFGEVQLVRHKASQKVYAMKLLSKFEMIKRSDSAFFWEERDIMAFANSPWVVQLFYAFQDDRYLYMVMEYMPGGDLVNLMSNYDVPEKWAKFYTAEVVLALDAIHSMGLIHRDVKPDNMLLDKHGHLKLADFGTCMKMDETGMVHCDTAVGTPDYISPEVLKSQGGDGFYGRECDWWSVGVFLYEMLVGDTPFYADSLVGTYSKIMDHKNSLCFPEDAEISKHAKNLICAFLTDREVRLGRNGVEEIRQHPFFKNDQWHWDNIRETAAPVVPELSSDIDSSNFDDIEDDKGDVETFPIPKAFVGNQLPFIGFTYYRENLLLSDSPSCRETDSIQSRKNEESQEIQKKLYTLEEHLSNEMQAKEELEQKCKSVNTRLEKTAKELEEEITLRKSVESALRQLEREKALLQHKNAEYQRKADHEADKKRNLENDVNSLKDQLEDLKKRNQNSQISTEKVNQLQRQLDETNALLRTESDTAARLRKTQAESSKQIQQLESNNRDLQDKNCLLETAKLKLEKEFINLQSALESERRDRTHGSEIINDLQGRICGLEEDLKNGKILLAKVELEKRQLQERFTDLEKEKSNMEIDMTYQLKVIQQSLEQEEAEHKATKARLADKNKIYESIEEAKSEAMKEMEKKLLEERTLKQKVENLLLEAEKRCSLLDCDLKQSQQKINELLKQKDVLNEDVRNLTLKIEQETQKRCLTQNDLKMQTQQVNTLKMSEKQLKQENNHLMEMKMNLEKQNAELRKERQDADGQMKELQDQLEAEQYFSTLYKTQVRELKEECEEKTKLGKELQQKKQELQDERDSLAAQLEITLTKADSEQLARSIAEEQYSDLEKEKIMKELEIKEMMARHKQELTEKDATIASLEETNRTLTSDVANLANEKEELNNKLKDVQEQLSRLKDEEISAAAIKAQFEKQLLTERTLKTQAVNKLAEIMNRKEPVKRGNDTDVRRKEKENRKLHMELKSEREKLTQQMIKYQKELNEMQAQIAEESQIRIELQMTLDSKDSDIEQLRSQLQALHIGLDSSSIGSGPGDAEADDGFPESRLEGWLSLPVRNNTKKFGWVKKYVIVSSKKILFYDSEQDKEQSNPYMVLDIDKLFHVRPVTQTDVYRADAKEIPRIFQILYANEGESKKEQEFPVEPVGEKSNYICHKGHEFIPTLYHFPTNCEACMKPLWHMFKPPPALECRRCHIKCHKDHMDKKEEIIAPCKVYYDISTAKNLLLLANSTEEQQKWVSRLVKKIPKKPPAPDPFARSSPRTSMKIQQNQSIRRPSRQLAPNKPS
Method for MV411 cell line: Cell viability in the presence of varying concentrations of the above listed compounds at different time points was used to assess cytotoxicity and the effect of the compounds on cell proliferation.
Cell viability was measured by the […] -GlO® cell viability assay from Promega (Madison, Wis.). The […] -GlO Luminescent Cell Viability Assay is a homogeneous method to determine the number of viable cells in culture based on quantitation of the ATP present, which signals the presence of metabolically active cells. Following treatment, […] -GlO® is added to treatment wells and incubated at 37° C. Luminescence values were measured at using a Molecular Devices Spectramax microplate reader.
Cells were grown to 70% confluency, trypsinized, counted, and seeded in 96 well flat-bottom plates at a final concentration of 2.5×10^3-5×10^3 cells/well (Day 0). Cells were allowed to incubate in growth media for 24 hours. Treatment with the test agents or standard agents began on Day 1 and continued for 72 hours. At the 72-hour time point, treatment containing media was removed.
For single agent and combination studies, data from each experiment was collected and expressed as % Cell Growth using the following calculation: % Cell Growth=(ftest/fvehicle)×100
Where ftest is the luminescence of the tested sample, and fvehicle is the luminescence of the vehicle in which the drug is dissolved. Dose response graphs and IC50 values were generated using Prism 6 software (GraphPad) using the following equation: Y=(Top−Bottom)/(1+10^((logIC50-X)−HillSlope))
Where X is the logarithm of the concentration and Y is the response. Y starts at the Bottom and goes to the Top with a sigmoid shape.
The experiments also evaluated the selectivity of the compounds for inhibiting growth of cancer cells carrying a mutation in the Flt3 gene. The MV411 cell line expresses the mutant allele of Flt3 with internal tandem duplications (ITD) of the gene.
Method for ROCK1: The peptide is phosphorylated by the protein kinase ROCK1 or ROCK2. The ROCK1 or ROCK2 enzyme, substrate, and cofactors (ATP and Mg^2+) are combined in a well of a microtiter plate and incubated for 3 hours at 25° C. in the presence or absence of an inhibitor compound. At the end of the incubation, the reaction is quenched by the addition of an EDTA-containing buffer. The substrate and product are separated and quantified electrophoretically using the microfluidic-based LABCHIP® 3000 Drug Discovery System from Caliper Life Sciences (Hopkinton, Mass.).
The components of the assay mixture are:
10 μM Sodium Orthovanadate
10 LM Beta-Glycerophosphate
5 μM ATP (for ROCK1) or 7 μM ATP (for ROCK2)
3 nM ROCK1 or 2.5 nM ROCK2 enzyme
Substrate and product peptides present in each sample are separated electrophoretically using the LABCHIP® 3000 capillary electrophoresis instrument. […] Change in the relative fluorescence intensity of the substrate and product peaks is the parameter measured reflecting enzyme activity. Capillary electrophoregramms (RDA acquisition files) are analyzed using HTS Well Analyzer software (Caliper Life Sciences, Hopkinton, Mass.). The kinase activity in each sample is determined as the product to sum ratio (PSR): P/(S+P), where P is the peak height of the product peptide and S is the peak height of the substrate peptide. For each compound, enzyme activity is measured at various concentrations (12 concentrations of compound spaced by 3× dilution intervals). Negative control samples (0%-inhibition in the absence of inhibitor) and positive control samples (100%-inhibition in the presence of 20 mM EDTA) are assembled in replicates of four and are used to calculate %-inhibition values for each compound at each concentration. Percent inhibition (Pinh) is determined using the following equation: Pinh=(PSRO %−PSRinh)/(PSRO %−PSR100%)*100
where PSRinh is the product sum ratio in the presence of inhibitor, PSRO % is the average product sum ratio in the absence of inhibitor, and PSR100% is the average product sum ratio in 100%-inhibition control samples. The IC50 values of inhibitors are determined by fitting the inhibition curves (Pinh versus inhibitor concentration) by the 4-parameter sigmoidal dose-response model using XLfit 4 software (IBDS).

The IC50 is the midpoint of a concentration-inhibition curve. For `COCCOc1cc(-c2cn[nH]c2)ccc1C(=O)N[C@H](C)c1cccc(C(=O)NC2CCCC2)c1` [Compound 115], the IC50 at ROCK2 was 1.02 nM; with MV411 cell line it was 240 nM; against ROCK1 it was 3.91 nM; in the series on K562 cell line it was 45000 nM. Besides, the “FLT3-ITD+ Selectivity (K562/MV411)” value in the series with MV411 cell line is given as 188.

For orientation: AUC(0-inf) means the area under the concentration-time curve extrapolated to infinity. In general, Cmax refers to the peak of the concentration-time curve. A word on the Tmax: it is the time at which the peak concentration occurs. Usually half-life stands for the time needed for the level to fall by half in the phase considered. The CL/F is the apparent clearance, not corrected for the fraction that reaches the circulation. By bioavailability is commonly meant the share of a dose that reaches the circulation, judged against a reference dose that is usually intravenous. A low value points to poor availability. At ROCK2, `O=C(NC1CCCC1)c1cccc([C@@H](CO)NC(=O)c2ccc(-c3ccncc3)cc2)c1` [Compound 10] displayed an IC50 of 0.87 nM. Further, in the series with MV411 cell line, the 50% inhibitory concentration (IC50) worked out at 170 nM and the “FLT3-ITD+ Selectivity (K562/MV411)” value was 100. Further, on ROCK1, half-maximal inhibition (IC50) required 4.8 nM. The IC50 in the series on K562 cell line was 17000 nM. Moreover, in series [1] (IV - 1 mg/kg), the “AUC % Extrap” value turned out to be 0.39%, the Cl/F obs amounted to 2.83 mL/min/kg and the R-sq stood at 0.90. In series [1] (PO - 5 mg/kg), the “AUC % Extrap” value turned out to be 0.09% and the R-sq is 0.93. In series [1] (mouse, plasma, IV - 1 mg/kg), the AUC(0-inf) came to 5370 ng·h/mL, the C0 is 7000 ng/mL, the Cmax stood at 4180 ng/mL and the Tmax turned out to be 0.25 h. For the same molecule, in series [1] (mouse, plasma, IV - 1 mg/kg), the half-life was 3.86 h and the AUC(0-t) is 5350 ng·h/mL. In addition, the Vd in series [1] (mouse, plasma, IV - 1 mg/kg, read-out: Vss) came to 0.32 L/kg. Also, in series [1] (mouse, plasma, PO - 5 mg/kg), the AUC(0-inf) came to 51500 ng·h/mL, the CL/F is 1.5 mL/min/kg, the Cmax came out at 13100 ng/mL and the Tmax worked out at 1 h. For the same molecule, in series [1] (mouse, plasma, PO - 5 mg/kg), the half-life is 2.32 h and the AUC(0-t) is 51400 ng·h/mL. Moreover, the bioavailability in series [1] (mouse, plasma, PO - 5 mg/kg vs IV - 1 mg/kg) was greater than 100%. For the same molecule, the Vd/F in series [1] (mouse, plasma, PO - 5 mg/kg, read-out: Vz/F obs) was 0.3 L/kg.

As for `COC(=O)N1CCC(NC(=O)c2cccc([C@@H](CO)NC(=O)c3ccc(-c4ccncc4)cc3)c2)CC1` [Compound 77], the IC50 was 0.94 nM at ROCK2, 20 nM in the series on MV411 cell line, 2.1 nM against ROCK1 and greater than 100000 nM with K562 cell line. In the series on MV411 cell line, the “FLT3-ITD+ Selectivity (K562/MV411)” value was greater than 5000.

Regarding `O=C(COc1cccc(CNC(=O)c2ccc(-c3ccncc3)cc2)c1)NC1CC1` [Compound 3], the IC50 against ROCK2 is 14.2 nM; in the series with MV411 cell line it was 2400 nM; against ROCK1, 38.8 nM; in the series with K562 cell line, greater than 100000 nM. The “FLT3-ITD+ Selectivity (K562/MV411)” value in the series with MV411 cell line is listed as greater than 42.

Take `O=C(NC1CCCC1)c1cccc([C@@H](CO)NC(=O)c2cccc(-c3ccncc3)c2)c1` [Compound 63]: the IC50 is 4.1 nM on ROCK2, 140 nM with MV411 cell line, 14 nM at ROCK1 and greater than 100000 nM in the series with K562 cell line. In addition, in the series on MV411 cell line, the “FLT3-ITD+ Selectivity (K562/MV411)” value is on record as greater than 721.

As for `O=C(NCC1CCCCC1)c1cccc([C@@H](CO)NC(=O)c2ccc(-c3ccncc3)cc2)c1` [Compound 21], the IC50 against ROCK2 turned out to be 1 nM; in the series on MV411 cell line, 2100 nM; against ROCK1 it was 3.1 nM; with K562 cell line, 39000 nM. In addition, in the series on MV411 cell line, the “FLT3-ITD+ Selectivity (K562/MV411)” value is 19.

With `O=C(NCC1CCC(F)(F)CC1)c1cccc([C@@H](CO)NC(=O)c2ccc(-c3ccncc3)cc2)c1` [Compound 24], the IC50 turned out to be 1.2 nM at ROCK2, 1500 nM with MV411 cell line, 2.2 nM at ROCK1 and 28000 nM in the series with K562 cell line. Further, the “FLT3-ITD+ Selectivity (K562/MV411)” value in the series with MV411 cell line is 19.

Take `Cn1ccc2ccc(NC(=O)c3cccc([C@@H](CO)NC(=O)c4ccc(-c5ccncc5)cc4)c3)cc2c1=O` [Compound 28]: the IC50 was 1.1 nM against ROCK2, 2400 nM with MV411 cell line, 1.6 nM against ROCK1 and greater than 100000 nM with K562 cell line. Also, the “FLT3-ITD+ Selectivity (K562/MV411)” value in the series on MV411 cell line is recorded as greater than 42.

Turning to `CN(C)Cc1ccc(CNC(=O)c2cccc([C@@H](CO)NC(=O)c3ccc(-c4ccncc4)cc3)c2)cc1` [Compound 32], the IC50 against ROCK2 amounted to 0.9 nM; in the series with MV411 cell line, 60 nM; against ROCK1, 1.4 nM; with K562 cell line it was 37000 nM. For the same molecule, in the series with MV411 cell line, the “FLT3-ITD+ Selectivity (K562/MV411)” value is on record as 619.

As for `CN1CCc2ccc(NC(=O)c3cccc(CNC(=O)c4ccc(-c5ccncc5)cc4)c3)cc2C1` [Compound B, reference compound], the IC50 was 8.7 nM against ROCK2, 1300 nM in the series with MV411 cell line, 9.9 nM at ROCK1 and 20000 nM in the series with K562 cell line. Moreover, the “FLT3-ITD+ Selectivity (K562/MV411)” value in the series on MV411 cell line amounted to 15.

Regarding `CC(C)NC(=O)c1cccc(CNC(=O)c2ccc(-c3ccncc3)cc2)c1` [Compound 5], the IC50 is 6.7 nM on ROCK2, 1500 nM in the series with MV411 cell line, 21.7 nM against ROCK1 and greater than 100000 nM in the series on K562 cell line. Besides, the “FLT3-ITD+ Selectivity (K562/MV411)” value with MV411 cell line is greater than 68.

`CCOc1cc(-c2cn[nH]c2)ccc1C(=O)N[C@H](C)c1cccc(C(=O)NC2CCCC2)c1` [Compound 103]: the IC50 against ROCK2 was 0.52 nM; with MV411 cell line it was 140 nM; against ROCK1, 1.51 nM; in the series with K562 cell line it was 8000 nM. Besides, the “FLT3-ITD+ Selectivity (K562/MV411)” value with MV411 cell line was determined as 59.

`C[C@@H](NC(=O)c1ccc(-c2ccncc2)cc1)c1cccc(C(=O)NC2CC2)c1` [Compound 76]: the IC50 is 1.2 nM against ROCK2, 480 nM in the series with MV411 cell line, 2.4 nM against ROCK1 and 58000 nM with K562 cell line. Besides, the “FLT3-ITD+ Selectivity (K562/MV411)” value in the series with MV411 cell line was found to be 120.

Consider `O=C(NC1CCCCC1)c1cccc([C@@H](CO)NC(=O)c2ccc(-c3ccncc3)cc2)c1` [Compound 26], for which the 50% inhibitory concentration (IC50) was 1.5 nM at ROCK2, 7400 nM in the series with MV411 cell line, 3.7 nM against ROCK1 and 48000 nM in the series on K562 cell line. For the same molecule, the “FLT3-ITD+ Selectivity (K562/MV411)” value with MV411 cell line is on record as 6.

Regarding `Cc1ccc(-c2ccncc2)cc1C(=O)N[C@H](CO)c1cccc(C(=O)NC2CCCC2)c1` [Compound 64], the half-inhibitory concentration (IC50) against ROCK2 was 5.2 nM; in the series on MV411 cell line, 1490 nM; at ROCK1 it was 16.8 nM; in the series with K562 cell line it was greater than 100000 nM. Further, the “FLT3-ITD+ Selectivity (K562/MV411)” value in the series on MV411 cell line is on record as greater than 68.

Consider `COc1cc(-c2cn[nH]c2)ccc1C(=O)N[C@H](CO)c1cccc(C(=O)NC2CCCC2)c1` [Compound 81], for which the IC50 is 0.88 nM against ROCK2, 120 nM in the series on MV411 cell line, 3.2 nM against ROCK1 and greater than 100000 nM with K562 cell line. The “FLT3-ITD+ Selectivity (K562/MV411)” value with MV411 cell line was 833.

In the case of `CCc1ccc(-c2ccncc2)cc1C(=O)N[C@H](CO)c1cccc(C(=O)NC2CCCC2)c1` [Compound 70], the 50% inhibitory concentration (IC50) on ROCK2 is 0.9 nM; in the series on MV411 cell line, 310 nM; against ROCK1 it was 3.84 nM; in the series with K562 cell line it was 85000 nM. For the same molecule, the “FLT3-ITD+ Selectivity (K562/MV411)” value in the series on MV411 cell line was found to be 275.

With `CN(C)Cc1cccc(CNC(=O)c2cccc([C@@H](CO)NC(=O)c3ccc(-c4cn[nH]c4)cc3)c2)c1` [Compound 82], the IC50 against ROCK2 is 0.65 nM; in the series on MV411 cell line, 610 nM; against ROCK1, 2 nM; in the series on K562 cell line it was greater than 100000 nM. Also, the “FLT3-ITD+ Selectivity (K562/MV411)” value with MV411 cell line is reported as 166.
